The values below come from patent publication US20250059231A1, “Protease inhibitors” (priority 2021, published 2025).

Each structure is given as a SMILES string. Where a SMILES comes first, the peptide text is derived from it. The star is where a group is joined. Palmitoyl = CCCCCCCCCCCCCCCC(=O)*

One data set addresses T1, ZIKA protease (Zika virus, UniProt Q32ZE1).
T1 construct: a trypsin-like serine protease domain in the N-terminal region of the flaviviral NS3 proteins
Nature of the data set: biochemical. The following applies: for inhibition at 1 µM / inhibition at 50 µM: read-out: inhibition of ZIKV.

Data set [1] deals with Dengue virus 2 (DENV2, ATCC VR-1584). In words: DENV2 infection in AG129 mice: clinical signs, body and spleen weights. The data set is classed as in vivo. The following applies: for Body weights of mice at the end of the study (Mean ± SD): b.i.d, n = 9; for general clinical signs of treated animals: 20 and 10 mg/kg. As to the method:
The purpose of this study was to determine the efficacy of the compounds on Dengue virus 2 (DENV2, ATCC® VR-1584™) infection in AG129 mice.
Six groups of AG129 mice, 6-8 weeks old, with 9 mice per group were used to test compounds according to table 3.1.1. Animal room environment was monitored for temperature and relative humidity twice per day. The temperature range was 22° C.±3° C. and humidity range was 30-70%. The animals were provided with 12 hours light and 12 hours darkness. Feed and drinking water was provided ad libitum. Compounds 43 and 113 were tested.
C6/36 (ATCC(CRL-1660) cell lines were grown in RPMI 1640 medium (Gibco/HiMedia) plus 5% fetal bovine serum at 28° C. Dengue virus type 2 (ATCC®VR-1584™) New Guinea C(NGC, DENV2) was passaged in BHK-21 cell cultures to make sufficient stocks for assay. Virus titer was determined by TCID50 method using BHK-21 cells.
Twenty-four hours post treatment (Day 0), animals were injected intraperitoneally (IP) with 0.2 ml of virus suspension (˜5×10^7/animal).
The vehicle for tested compounds was 5% DMSO+95% (20%) hydroxypropylcyclodextrin. […] Formulations were prepared daily immediately before dosing.
(§1) Administration of compounds and vehicle to animals started twenty four hours before infection (Day −1). Animals were treated daily (From Day-1 to day 4) as per the experimental design shown below in table 3.1.5. Animals were monitored for general clinical signs, morbidity and mortality. Body weights were measured daily.
Animals were sacrificed on day 5 post infection with Isoflurane followed by an overdose of CO2. Spleens were excised, measured and weighed.
(§2) The Mean±SD Log10PFU/ml, relative Mean±SD spleen weight, Mean±SD biomarker concentrations were estimated in each group. Significant differences between group means and control were analyzed by one-way ANOVA, followed by a Dunnett's multiple comparison test, using GraphPad Prism 5 at 95% confidence levels. A p value of <0.05 was considered as significant.

For another data set, the system named is TNF alpha. In words: DENV2 infection in AG129 mice: plasma TNF alpha (ELISA). The format is in vivo. The following applies: 10 mg/kg I.P, b.i.d; n = 9; vs vehicle control. The protocol: as §1
Cytokine levels (TNF alpha, IL-6 and IL-12) in plasma samples were measured using Enzyme-Linked Immunosorbent Assay (ELISA). Mouse TNF alpha ELISA Kit (Abcam: ab208348), Mouse IL-6 ELISA Kit (Abcam: ab100712), and Mouse IL-12 p40+IL-12 p70 ELISA Kit (Abcam: ab100699) were used to estimate TNF alpha, IL-6 and IL-12, respectively. The assays were performed according to the manufacturer's instructions and was analysed on a TECAN-NanoQuant Plate™ system.
as §2
In general terms: ELISA stands for enzyme-linked immunosorbent assay.

Details of data set [2]: species or system mice. The note with it: mouse, in vivo. From the text: FIG. 5A-multidose PK-profiles of compound 113 in mice after intravenous (IV), intraperitoneal (IP) and subcutaneous (SC) administration to mice (dosed twice per day for 5 days, mean of 3 mice per group).
FIG. 5D-multidose PK-profiles of compound 43 in mice after intravenous (IV), intraperitoneal (IP) and subcutaneous (SC) administration to mice (dosed twice per day for 5 days, mean of 3 mice per group).
Similar data was obtained with compound 43 (FIG. 5D)

For another data set, the target named is T2, WNV protease (West Nile virus, UniProt P06935).
T2 construct: a trypsin-like serine protease domain in the N-terminal region of the flaviviral NS3 proteins
In words: WNV protease assay (analogous procedure). The following applies: read-out: IC50 for WNNV. The data set is classed as biochemical.

T1 sequence (Q32ZE1 1499-1676): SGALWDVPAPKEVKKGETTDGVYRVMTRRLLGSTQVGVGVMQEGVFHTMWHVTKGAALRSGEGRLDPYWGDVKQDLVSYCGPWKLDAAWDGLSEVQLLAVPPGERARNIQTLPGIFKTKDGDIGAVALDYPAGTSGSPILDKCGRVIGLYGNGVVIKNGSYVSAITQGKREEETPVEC
T1 sequence (Q32ZE1 1421-1460): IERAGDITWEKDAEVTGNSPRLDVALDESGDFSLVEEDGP
T2 sequence (P06935 1424-1463): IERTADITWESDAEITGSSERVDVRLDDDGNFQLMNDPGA
T2 sequence (P06935 1502-1679): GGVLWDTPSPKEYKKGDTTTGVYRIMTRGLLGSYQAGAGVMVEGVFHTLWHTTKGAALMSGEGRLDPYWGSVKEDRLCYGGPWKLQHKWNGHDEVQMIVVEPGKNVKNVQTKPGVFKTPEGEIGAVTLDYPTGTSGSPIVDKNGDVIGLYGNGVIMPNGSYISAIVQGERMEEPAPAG

By IC50 is commonly meant the concentration at which inhibition is half-maximal. The inhibition is the share of the control response that was lost under treatment. One may read the EC50 as the concentration giving half of the maximal effect. `CCCCCCCCCCCCCCCC(=O)N[C@@H](CCCCN)CC(=O)N[C@@H](C)C(=O)N[C@@H](C)CC(=O)N[C@H](CCCCN)C(N)=O` (stereo in doubt) [compound 113]: at ZIKA protease, the half-maximal inhibitory concentration (IC50) is no more than 25 µM, the inhibition at 1 µM is no less than 10% and the inhibition at 50 µM is no less than 65%. Also, the “Body weights of mice at the end of the study (Mean ± SD)” value (from here on “Body weights of mice … (Mean ± SD)”) in data set [1] (10 mg/kg I.P) turned out to be 17.22 ± 1.39 g. The “Body weights of mice … (Mean ± SD)” value in data set [1] (20 mg/kg I.P) is given as 16.89 ± 1.36 g. The “general clinical signs of treated animals” value in data set [1] is reported as “apparently normal”. For the same molecule, in the data set with TNF alpha, the “Plasma concentration of TNF-alpha in mouse plasma after treatment” value is listed as 25.99 ± 9.19. Besides, the pharmacokinetic profiles result in data set [2] was “reliable pharmacokinetic profiles with limited inter animal variability and dose proportionality”. Moreover, in data set [2] (sc), the “elimination in blood plasma” value is “slow elimination” and the “pharmacokinetic behaviour when administered subcutaneously” value is “improved pharmacokinetic behaviour”. The same molecule gave an EC50 with West Nile virus of no more than 25 µM. Moreover, the IC50 on WNV protease was no more than 40 µM.
In the case of `CCCCCCCCCCCCCCCC(=O)N[C@@H](CCCNC(=N)N)C(=O)N[C@@H](CCC(N)=O)C(=O)N[C@@H](Cc1ccccc1)C(N)=O` [compound 43] (Palmitoyl-Arg-Gln-Phe-NH2), at ZIKA protease, the IC50 is no more than 25 µM, the inhibition at 1 µM is no less than 10% and the inhibition at 50 µM is no less than 65%. In data set [1] (10 mg/kg I.P), the “Body weights of mice … (Mean ± SD)” value is 18.78 ± 2.28 g. Moreover, the “Body weights of mice … (Mean ± SD)” value in data set [1] (20 mg/kg I.P) is reported as 18.11 ± 1.45 g. Besides, the “general clinical signs of treated animals” value in data set [1] was “apparently normal”. Also, in the data set on TNF alpha, the “Plasma concentration of TNF-alpha in mouse plasma after treatment” value is reported as 32.45 ± 12.30. For the same molecule, the “pharmacokinetic behaviour when administered subcutaneously” value in data set [2] (sc) was “improved pharmacokinetic behaviour”. This molecule also registered an EC50 in the data set with West Nile virus of no more than 25 µM. Besides, the IC50 at WNV protease was no more than 40 µM.
